In US20230129721A1, “STABILIZER FOR RADIOPHARMACEUTICALS AND RADIOPHARMACEUTICAL COMPOSITION COMPRISING THE SAME” (THE ASAN FOUNDATION, priority 2020, published 2023):

Test: Stability (labeling / radiochemical purity by HPLC) of ^99mTc-labeled radiopharmaceutical-containing preparation under acidic, neutral and basic conditions
Type: physicochemical
Description: 2 mL of Tc-99m was added dropwise to a lyophilization vial containing 0.1 mg of GP-104, 15 μg of SnCl2, and 20 μg (165 nmol) of cysteine, and left at room temperature for 10 minutes, and the reaction was terminated by adjusting the pH of the mixture to pH 7 using a NaOH solution. The labeling purity was determined using HPLC (analysis conditions: Luna C18 250×4.6 mm, phosphate buffer:acetonitrile (100:0, 0-5 minutes; 80:20, 5-10 minutes; 80:20, 17 minutes; 100:0, 17.1 minutes; 100:0. 20 minutes), 1.0 mL/min, UV=280 nm).
HCl and NaOH were further added dropwise to the solution of Example 7 to adjust the final pH of the solution, followed by stability evaluation under the acidic (pH 5.5) and basic (pH 8.5) conditions. Then, the labeling purity was determined in the same manner as in Example 7 using HPLC.
(§1) 2 mL of Tc-99m was added dropwise to a lyophilization vial containing 0.1 mg of radiopharmaceutical GP-104, 15 μg of SnCl2, 10 μg (82.5 nmol) of cysteine, and 22 μg (82.5 nmol) of VB1, and left at room temperature for 10 minutes, and the reaction was terminated by adjusting the pH of the mixture to pH 7 using a NaOH solution. Then, the labeling purity was determined in the same manner as in Example 7 using HPLC.
HCl and NaOH were further added dropwise to the solution of Example 9 to adjust the final pH of the solution, followed by stability evaluation under the acidic (pH 5.5) and basic (pH 8.5) conditions. Then, the labeling purity was determined in the same manner as in Example 7 using HPLC.
as §1, with “of” for “of radiopharmaceutical”, “17” for “22”, “VB6,” for “VB1,”
HCl and NaOH were further added dropwise to the solution of Example 11 to adjust the final pH of the solution, followed by stability evaluation under the acidic (pH 5.5) and basic (pH 8.5) conditions. Then, the labeling purity was determined in the same manner as in Example 7 using HPLC.
as §1, with “of GP-105,” for “of radiopharmaceutical GP-104,”, “SnCl2, and 20” for “SnCl2, 10”, “μg (165” for “μg (82.5”, “cysteine,” for “cysteine, and 22 μg (82.5 nmol) of VB1,”
HCl and NaOH were further added dropwise to the solution of Example 13 to adjust the final pH of the solution, followed by stability evaluation under the acidic (pH 5.5) and basic (pH 8.5) conditions. Then, the labeling purity was determined in the same manner as in Example 7 using HPLC.
as §1, with “GP-105,” for “radiopharmaceutical GP-104,”
HCl and NaOH were further added dropwise to the solution of Example 15 to adjust the final pH of the solution, followed by stability evaluation under the acidic (pH 5.5) and basic (pH 8.5) conditions. Then, the labeling purity was determined in the same manner as in Example 7 using HPLC.
as §1, with “GP-105,” for “radiopharmaceutical GP-104,”, “17” for “22”, “VB6,” for “VB1,”, “HPLC. […]” for “HPLC.”

[1] = 10 μg (82.5 nmol) cysteine and 17 μg (82.5 nmol) VB6, pH 5.5, 0 hr
[2] = 10 μg (82.5 nmol) cysteine and 17 μg (82.5 nmol) VB6, pH 5.5, 2 hr
[3] = 10 μg (82.5 nmol) cysteine and 17 μg (82.5 nmol) VB6, pH 5.5, 4 hr
[4] = 10 μg (82.5 nmol) cysteine and 17 μg (82.5 nmol) VB6, pH 7, 0 hr
[5] = 10 μg (82.5 nmol) cysteine and 17 μg (82.5 nmol) VB6, pH 7, 2 hr
[6] = 10 μg (82.5 nmol) cysteine and 17 μg (82.5 nmol) VB6, pH 7, 4 hr
[7] = 10 μg (82.5 nmol) cysteine and 17 μg (82.5 nmol) VB6, pH 8.5, 0 hr
[8] = 10 μg (82.5 nmol) cysteine and 17 μg (82.5 nmol) VB6, pH 8.5, 2 hr
[9] = 10 μg (82.5 nmol) cysteine and 17 μg (82.5 nmol) VB6, pH 8.5, 4 hr
[10] = 10 μg (82.5 nmol) cysteine and 22 μg (82.5 nmol) VB1, pH 5.5, 0 hr
[11] = 10 μg (82.5 nmol) cysteine and 22 μg (82.5 nmol) VB1, pH 5.5, 2 hr
[12] = 10 μg (82.5 nmol) cysteine and 22 μg (82.5 nmol) VB1, pH 5.5, 4 hr
[13] = 10 μg (82.5 nmol) cysteine and 22 μg (82.5 nmol) VB1, pH 7, 0 hr
[14] = 10 μg (82.5 nmol) cysteine and 22 μg (82.5 nmol) VB1, pH 7, 2 hr
[15] = 10 μg (82.5 nmol) cysteine and 22 μg (82.5 nmol) VB1, pH 7, 4 hr
[16] = 10 μg (82.5 nmol) cysteine and 22 μg (82.5 nmol) VB1, pH 8.5, 0 hr
[17] = 10 μg (82.5 nmol) cysteine and 22 μg (82.5 nmol) VB1, pH 8.5, 2 hr
[18] = 10 μg (82.5 nmol) cysteine and 22 μg (82.5 nmol) VB1, pH 8.5, 4 hr
[19] = 20 μg (165 nmol) cysteine, pH 5.5, 0 hr
[20] = 20 μg (165 nmol) cysteine, pH 5.5, 2 hr
[21] = 20 μg (165 nmol) cysteine, pH 5.5, 4 hr
[22] = 20 μg (165 nmol) cysteine, pH 7, 0 hr
[23] = 20 μg (165 nmol) cysteine, pH 7, 2 hr
[24] = 20 μg (165 nmol) cysteine, pH 7, 4 hr
[25] = 20 μg (165 nmol) cysteine, pH 8.5, 0 hr
[26] = 20 μg (165 nmol) cysteine, pH 8.5, 2 hr
[27] = 20 μg (165 nmol) cysteine, pH 8.5, 4 hr

Row | radiochemical purity (labeling purity) [1] [%] | radiochemical purity (labeling purity) [2] [%] | radiochemical purity (labeling purity) [3] [%] | radiochemical purity (labeling purity) [4] [%] | radiochemical purity (labeling purity) [5] [%] | radiochemical purity (labeling purity) [6] [%] | radiochemical purity (labeling purity) [7] [%] | radiochemical purity (labeling purity) [8] [%] | radiochemical purity (labeling purity) [9] [%] | radiochemical purity (labeling purity) [10] [%] | radiochemical purity (labeling purity) [11] [%] | radiochemical purity (labeling purity) [12] [%] | radiochemical purity (labeling purity) [13] [%] | radiochemical purity (labeling purity) [14] [%] | radiochemical purity (labeling purity) [15] [%] | radiochemical purity (labeling purity) [16] [%] | radiochemical purity (labeling purity) [17] [%] | radiochemical purity (labeling purity) [18] [%] | radiochemical purity (labeling purity) [19] [%] | radiochemical purity (labeling purity) [20] [%] | SMILES | further results
1 | 100 | 97.24 | 95.61 | 100 | 98.56 | 98.2 | 100 | 92.21 | 89.62 | 100 | 100 | 98.63 | 100 | 100 | 94.88 | 100 | 94.13 | 90.17 | 100 | 85.49 | O=C(O)C[C@H](NC(=O)[C@@H]1CCCN(C(=O)CCC2CCNCC2)C1)c1cncc(OCCNC(=O)CN(CC(=O)O)CC(=O)O)c1 (99mTc complex, metal not drawn) [GP-105, 2,2′-((2-((2-((5-((S)-2-carboxy-1-((R)-1-(3-(piperidin-4-yl)propanoyl)piperidine-3-carboxamido)ethyl)pyridin-3-yl)oxy)ethyl)amino)-2-oxoethyl)azanediyl)diacetic acid] | radiochemical purity (labeling purity) [21]: 82.11%; radiochemical purity (labeling purity) [22]: 100%; radiochemical purity (labeling purity) [23]: 94.88%; radiochemical purity (labeling purity) [24]: 85.55%; radiochemical purity (labeling purity) [25]: 100%; radiochemical purity (labeling purity) [26]: 50.64%; radiochemical purity (labeling purity) [27]: 23.98%
2 | 97.24 | 90.29 | 90.65 | 97.24 | 95.61 | 96.25 | 97.24 | 95.61 | 91.19 | 100 | 92.72 | 91.20 | 100 | 98.63 | 98.18 | 100 | 83.08 | 80.97 | 95.26 | 91.45 | O=C(O)C[C@H](NC(=O)[C@@H]1CCCN(C(=O)CCC2CCNCC2)C1)c1cncc(OCCNC(=O)CN(CCN(CCN(CC(=O)O)CC(=O)O)CC(=O)O)CC(=O)O)c1 [GP-104, (S)-3-(5-(2-(2-DTPA acetamido)ethoxy)pyridin-3-yl)-3-((R)-1-(3-(piperidin-4-yl)propanoyl)piperidine-3-carboxamido)propanoic acid] | radiochemical purity (labeling purity) [21]: 89.28%; radiochemical purity (labeling purity) [22]: 95.26%; radiochemical purity (labeling purity) [23]: 91.19%; radiochemical purity (labeling purity) [24]: 91.61%; radiochemical purity (labeling purity) [25]: 95.26%; radiochemical purity (labeling purity) [26]: 79.83%; radiochemical purity (labeling purity) [27]: 51.77%
